In patent publication US11198713B2, “Agents modulating beta-catenin functions and methods thereof” (FOG PHARMACEUTICALS, INC., priority 2017, dated 2021) one finds EC50 data, which are given here for 14 compounds.

For this assay, the target named is T1, full-length beta-catenin (Axin site) (Homo sapiens, UniProt P35222).
T1 construct: 15 nM full-length beta-catenin, 20 nM FITC labeled peptide in buffer
T1 sequence (P35222 1-781): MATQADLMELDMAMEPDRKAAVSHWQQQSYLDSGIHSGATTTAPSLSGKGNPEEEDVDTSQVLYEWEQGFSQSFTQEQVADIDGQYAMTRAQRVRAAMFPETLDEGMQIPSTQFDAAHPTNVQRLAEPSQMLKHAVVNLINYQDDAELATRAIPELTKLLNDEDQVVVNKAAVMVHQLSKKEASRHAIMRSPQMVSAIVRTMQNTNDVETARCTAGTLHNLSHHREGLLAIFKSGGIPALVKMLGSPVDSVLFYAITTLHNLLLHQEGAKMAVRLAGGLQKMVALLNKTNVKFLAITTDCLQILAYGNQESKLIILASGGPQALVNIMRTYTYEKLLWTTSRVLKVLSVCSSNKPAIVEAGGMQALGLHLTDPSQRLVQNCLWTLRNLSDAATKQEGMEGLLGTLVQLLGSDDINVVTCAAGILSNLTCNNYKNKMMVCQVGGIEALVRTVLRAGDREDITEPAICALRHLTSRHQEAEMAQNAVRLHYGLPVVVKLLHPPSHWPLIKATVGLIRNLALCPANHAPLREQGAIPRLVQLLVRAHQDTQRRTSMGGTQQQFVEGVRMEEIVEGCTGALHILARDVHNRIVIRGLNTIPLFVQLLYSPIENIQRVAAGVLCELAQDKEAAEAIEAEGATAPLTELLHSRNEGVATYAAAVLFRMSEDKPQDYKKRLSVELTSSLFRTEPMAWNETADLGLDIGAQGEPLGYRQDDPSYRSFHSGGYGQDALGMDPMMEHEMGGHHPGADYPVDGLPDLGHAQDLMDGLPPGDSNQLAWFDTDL
As to the kind of experiment: Competition fluorescence polarization assay (Axin site probe). The assay is classed as binding. Particulars: competition fluorescence polarization, Table 2; read-out: in vitro FP EC50. Put shortly:
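Competition FP: 15 nM full-length β-catenin pre-incubated 5 min with 20 nM FITC-labelled stapled Axin-site peptide, then titrated peptide added (3-fold series from 5 μM) for 15 min in the dark. Buffer 50 mM Tris pH 8.0, 250 mM NaCl, 2% glycerol, 0.5 mM EDTA; duplicate reads.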

Where only a bound is given, the exact number is not on record here.

For `CC[C@H](C)[C@@H]1NC(=O)[C@@]2(NC(=O)[C@H](CCC(N)=O)NC(=O)[C@@H]3CCCN3C(C)=O)CCN(C2)C(=O)OCC=CCCC[C@](C)(C(=O)N[C@@H](Cc2c[nH]cn2)C(=O)N[C@H](C(=O)N[C@@H](CCCNC(=N)N)C(=O)N[C@@H](CCCNC(=N)N)C(=O)N[C@H](C(=O)N[C@@H](Cc2c[nH]c3ccccc23)C(=O)N[C@@H](CCCNC(=N)N)C(N)=O)C(C)C)C(C)C)NC(=O)[C@H](CC(=O)O)NC(=O)[C@H](CC(C)C)NC1=O` (single isomer, unassigned) [FP0743c, Ac-P-Q-MC-I-L-D-R5-H-V-R-R-V-W-R-NH2], the concentration giving a half-maximal response (EC50) is 500 to 5000 nM.

On to `CC[C@H](C)[C@@H]1NC(=O)[C@@]2(NC(=O)[C@H](CCC(N)=O)NC(=O)[C@@H]3CCCN3C(C)=O)CCN(C2)C(=O)OCC=CCCCC[C@](C)(C(=O)N[C@@H](Cc2c[nH]cn2)C(=O)N[C@H](C(=O)N[C@@H](CCCNC(=N)N)C(=O)N[C@@H](CCCNC(=N)N)C(=O)N[C@H](C(=O)N[C@@H](Cc2c[nH]c3ccccc23)C(=O)N[C@@H](CCCNC(=N)N)C(N)=O)C(C)C)C(C)C)NC(=O)[C@H](CC(=O)O)NC(=O)[C@H](CC(C)C)NC1=O` (single isomer, unassigned) [FP0745c, Ac-P-Q-MC-I-L-D-R6-H-V-R-R-V-W-R-NH2], for which the EC50 fell in the range of 100 to 500 nM.

On to `CC[C@H](C)[C@@H]1NC(=O)[C@]2(NC(=O)[C@H](CCC(N)=O)NC(=O)[C@@H]3CCCN3C(C)=O)CCN(CC=CCCC[C@@](C)(C(=O)N[C@@H](Cc3c[nH]cn3)C(=O)N[C@H](C(=O)N[C@@H](CCCNC(=N)N)C(=O)N[C@@H](CCCNC(=N)N)C(=O)N[C@H](C(=O)N[C@@H](Cc3c[nH]c4ccccc34)C(=O)N[C@@H](CCCNC(=N)N)C(N)=O)C(C)C)C(C)C)NC(=O)[C@H](CC(=O)O)NC(=O)[C@H](CC(C)C)NC1=O)C2` (single isomer, unassigned) [FP0751a, Ac-P-Q-MB-I-L-D-S5-H-V-R-R-V-W-R-NH2], for which the EC50 was over 5000 nM.

Turning to `CC[C@H](C)[C@@H]1NC(=O)[C@]2(NC(=O)[C@H](CCC(N)=O)NC(=O)[C@@H]3CCCN3C(C)=O)CCN(C2)C(=O)OCC=CCCC[C@@](C)(C(=O)N[C@@H](Cc2c[nH]cn2)C(=O)N[C@H](C(=O)N[C@@H](CCCNC(=N)N)C(=O)N[C@@H](CCCNC(=N)N)C(=O)N[C@H](C(=O)N[C@@H](Cc2c[nH]c3ccccc23)C(=O)N[C@@H](CCCNC(=N)N)C(N)=O)C(C)C)C(C)C)NC(=O)[C@H](CC(=O)O)NC(=O)[C@H](CC(C)C)NC1=O` (single isomer, unassigned) [FP0751c, Ac-P-Q-MB-I-L-D-S5-H-V-R-R-V-W-R-NH2], the EC50 lay within 500 to 5000 nM.

With `CC[C@H](C)[C@@H]1NC(=O)[C@]2(NC(=O)[C@H](CCC(N)=O)NC(=O)[C@@H]3CCCN3C(C)=O)CCN(C2)C(=O)OCC=CCCCC[C@@](C)(C(=O)N[C@@H](Cc2c[nH]cn2)C(=O)N[C@H](C(=O)N[C@@H](CCCNC(=N)N)C(=O)N[C@@H](CCCNC(=N)N)C(=O)N[C@H](C(=O)N[C@@H](Cc2c[nH]c3ccccc23)C(=O)N[C@@H](CCCNC(=N)N)C(N)=O)C(C)C)C(C)C)NC(=O)[C@H](CC(=O)O)NC(=O)[C@H](CC(C)C)NC1=O` (single isomer, unassigned) [FP0752c, Ac-P-Q-MB-I-L-D-S6-H-V-R-R-V-W-R-NH2], the EC50 fell in the range of 500 to 5000 nM.

Regarding `CC[C@H](C)[C@@H]1NC(=O)[C@]2(NC(=O)[C@H](CCC(N)=O)NC(=O)[C@@H]3CCCN3C(C)=O)CCN(CC=CCCCCC[C@@](C)(C(=O)N[C@@H](Cc3c[nH]cn3)C(=O)N[C@H](C(=O)N[C@@H](CCCNC(=N)N)C(=O)N[C@@H](CCCNC(=N)N)C(=O)N[C@H](C(=O)N[C@@H](Cc3c[nH]c4ccccc34)C(=O)N[C@@H](CCCNC(=N)N)C(N)=O)C(C)C)C(C)C)NC(=O)[C@H](CC(=O)O)NC(=O)[C@H](CC(C)C)NC1=O)C2` (single isomer, unassigned) [FP0753a, Ac-P-Q-MB-I-L-D-S7-H-V-R-R-V-W-R-NH2], the concentration for a half-maximal effect (EC50) was over 5000 nM.

Consider `CC[C@H](C)[C@@H]1NC(=O)[C@](C)(NC(=O)[C@H](CCC(N)=O)NC(=O)[C@@H]2CCCN2C(C)=O)CCCC=CCN2CC[C@@](C(=O)N[C@@H](Cc3c[nH]cn3)C(=O)N[C@H](C(=O)N[C@@H](CCCNC(=N)N)C(=O)N[C@@H](CCCNC(=N)N)C(=O)N[C@H](C(=O)N[C@@H](Cc3c[nH]c4ccccc34)C(=O)N[C@@H](CCCNC(=N)N)C(N)=O)C(C)C)C(C)C)(C2)NC(=O)[C@H](CC(=O)O)NC(=O)[C@H](CC(C)C)NC1=O` (single isomer, unassigned) [FP0758a, Ac-P-Q-R5-I-L-D-MB-H-V-R-R-V-W-R-NH2], for which the 50% effective concentration (EC50) is over 5000 nM.

On to `CC[C@H](C)[C@@H]1NC(=O)[C@](C)(NC(=O)[C@H](CCC(N)=O)NC(=O)[C@@H]2CCCN2C(C)=O)CCCC=CCOC(=O)N2CC[C@@](C(=O)N[C@@H](Cc3c[nH]cn3)C(=O)N[C@H](C(=O)N[C@@H](CCCNC(=N)N)C(=O)N[C@@H](CCCNC(=N)N)C(=O)N[C@H](C(=O)N[C@@H](Cc3c[nH]c4ccccc34)C(=O)N[C@@H](CCCNC(=N)N)C(N)=O)C(C)C)C(C)C)(C2)NC(=O)[C@H](CC(=O)O)NC(=O)[C@H](CC(C)C)NC1=O` (single isomer, unassigned) [FP0758c, Ac-P-Q-R5-I-L-D-MB-H-V-R-R-V-W-R-NH2], for which the half-maximal effective concentration (EC50) is 500 to 5000 nM.

As to `CC[C@H](C)[C@@H]1NC(=O)[C@@](C)(NC(=O)[C@H](CCC(N)=O)NC(=O)[C@@H]2CCCN2C(C)=O)CCCCC=CCOC(=O)N2CC[C@@](C(=O)N[C@@H](Cc3c[nH]cn3)C(=O)N[C@H](C(=O)N[C@@H](CCCNC(=N)N)C(=O)N[C@@H](CCCNC(=N)N)C(=O)N[C@H](C(=O)N[C@@H](Cc3c[nH]c4ccccc34)C(=O)N[C@@H](CCCNC(=N)N)C(N)=O)C(C)C)C(C)C)(C2)NC(=O)[C@H](CC(=O)O)NC(=O)[C@H](CC(C)C)NC1=O` (single isomer, unassigned) [FP0761c, Ac-P-Q-S6-I-L-D-MB-H-V-R-R-V-W-R-NH2], the EC50 was in the range of 100 to 500 nM.

As for `CC[C@H](C)[C@@H]1NC(=O)[C@@](C)(NC(=O)[C@H](CCC(N)=O)NC(=O)[C@@H]2CCCN2C(C)=O)CCCCCC=CCN2CC[C@@](C(=O)N[C@@H](Cc3c[nH]cn3)C(=O)N[C@H](C(=O)N[C@@H](CCCNC(=N)N)C(=O)N[C@@H](CCCNC(=N)N)C(=O)N[C@H](C(=O)N[C@@H](Cc3c[nH]c4ccccc34)C(=O)N[C@@H](CCCNC(=N)N)C(N)=O)C(C)C)C(C)C)(C2)NC(=O)[C@H](CC(=O)O)NC(=O)[C@H](CC(C)C)NC1=O` (single isomer, unassigned) [FP0763a, Ac-P-Q-S7-I-L-D-MB-H-V-R-R-V-W-R-NH2], the EC50 lay in the range of 500 to 5000 nM.

With `CC[C@H](C)[C@@H]1NC(=O)[C@@](C)(NC(=O)[C@H](CCC(N)=O)NC(=O)[C@@H]2CCCN2C(C)=O)CCCCCC=CCOC(=O)N2CC[C@@](C(=O)N[C@@H](Cc3c[nH]cn3)C(=O)N[C@H](C(=O)N[C@@H](CCCNC(=N)N)C(=O)N[C@@H](CCCNC(=N)N)C(=O)N[C@H](C(=O)N[C@@H](Cc3c[nH]c4ccccc34)C(=O)N[C@@H](CCCNC(=N)N)C(N)=O)C(C)C)C(C)C)(C2)NC(=O)[C@H](CC(=O)O)NC(=O)[C@H](CC(C)C)NC1=O` (single isomer, unassigned) [FP0763c, Ac-P-Q-S7-I-L-D-MB-H-V-R-R-V-W-R-NH2], the EC50 lay in the range of 100 to 500 nM.

With `CC[C@H](C)[C@@H]1NC(=O)[C@](C)(NC(=O)[C@H](CCC(N)=O)NC(=O)[C@@H]2CCCN2C(C)=O)CCCCC=CCN2CC[C@](C(=O)N[C@@H](Cc3c[nH]cn3)C(=O)N[C@H](C(=O)N[C@@H](CCCNC(=N)N)C(=O)N[C@@H](CCCNC(=N)N)C(=O)N[C@H](C(=O)N[C@@H](Cc3c[nH]c4ccccc34)C(=O)N[C@@H](CCCNC(=N)N)C(N)=O)C(C)C)C(C)C)(C2)NC(=O)[C@H](CC(=O)O)NC(=O)[C@H](CC(C)C)NC1=O` (single isomer, unassigned) [FP0767a, Ac-P-Q-R6-I-L-D-MC-H-V-R-R-V-W-R-NH2], the concentration for a half-maximal effect (EC50) lay within 500 to 5000 nM.

`CC[C@H](C)[C@@H]1NC(=O)[C@](C)(NC(=O)[C@H](CCC(N)=O)NC(=O)[C@@H]2CCCN2C(C)=O)CCCCC=CCOC(=O)N2CC[C@](C(=O)N[C@@H](Cc3c[nH]cn3)C(=O)N[C@H](C(=O)N[C@@H](CCCNC(=N)N)C(=O)N[C@@H](CCCNC(=N)N)C(=O)N[C@H](C(=O)N[C@@H](Cc3c[nH]c4ccccc34)C(=O)N[C@@H](CCCNC(=N)N)C(N)=O)C(C)C)C(C)C)(C2)NC(=O)[C@H](CC(=O)O)NC(=O)[C@H](CC(C)C)NC1=O` (single isomer, unassigned) [FP0767c, Ac-P-Q-R6-I-L-D-MC-H-V-R-R-V-W-R-NH2]: the EC50 lay in the range of 100 to 500 nM.

With `CC[C@H](C)[C@@H]1NC(=O)[C@](C)(NC(=O)[C@H](CCC(N)=O)NC(=O)[C@@H]2CCCN2C(C)=O)CCCCCC=CCN2CC[C@](C(=O)N[C@@H](Cc3c[nH]cn3)C(=O)N[C@H](C(=O)N[C@@H](CCCNC(=N)N)C(=O)N[C@@H](CCCNC(=N)N)C(=O)N[C@H](C(=O)N[C@@H](Cc3c[nH]c4ccccc34)C(=O)N[C@@H](CCCNC(=N)N)C(N)=O)C(C)C)C(C)C)(C2)NC(=O)[C@H](CC(=O)O)NC(=O)[C@H](CC(C)C)NC1=O` (single isomer, unassigned) [FP0768a, Ac-P-Q-R7-I-L-D-MC-H-V-R-R-V-W-R-NH2], the EC50 was over 5000 nM.
